According to the supplement of paper PMC13380429:

Tests used:
Conditions in all cases: 72 h
[1] = test system: U2OS; assay: cell viability relative to DMSO; higher = less toxic
[2] = test system: Calu-3; assay: as above
[3] = test system: Caco-2; assay: as above
[4] = test system: Vero E6; assay: as above
[5] = test system: HepG2; assay: as above
[6] = test system: U2OS; assay: drug sensitivity score (DSS) for viability; higher = more toxic; extreme values may be limits of the assay
[7] = test system: Calu-3; assay: as above
[8] = test system: Caco-2; assay: as above
[9] = test system: Vero E6; assay: as above
[10] = test system: HepG2; assay: as above
[11] = test system: U2OS; assay: relative viability EC50 (midpoint between 100% and the lowest measured viability); higher = less toxic
[12] = test system: Calu-3; assay: as above
[13] = test system: Caco-2; assay: as above
[14] = test system: Vero E6; assay: as above
[15] = test system: HepG2; assay: as above

SMILES | cell viability ([1]; 1 nM) [%] | cell viability ([1]; 10 nM) [%] | cell viability ([1]; 100 nM) [%] | cell viability ([1]; 1000 nM) [%] | cell viability ([1]; 10000 nM) [%] | cell viability ([2]; 1 nM) [%] | cell viability ([2]; 10 nM) [%] | cell viability ([2]; 100 nM) [%] | cell viability ([2]; 1000 nM) [%] | cell viability ([2]; 10000 nM) [%] | cell viability ([3]; 1 nM) [%] | cell viability ([3]; 10 nM) [%] | cell viability ([3]; 100 nM) [%] | cell viability ([3]; 1000 nM) [%] | cell viability ([3]; 10000 nM) [%] | cell viability ([4]; 1 nM) [%] | cell viability ([4]; 10 nM) [%] | cell viability ([4]; 100 nM) [%] | cell viability ([4]; 1000 nM) [%] | cell viability ([4]; 10000 nM) [%] | cell viability ([5]; 1 nM) [%] | cell viability ([5]; 10 nM) [%] | cell viability ([5]; 100 nM) [%] | cell viability ([5]; 1000 nM) [%] | cell viability ([5]; 10000 nM) [%] | drug sensitivity score [6] | drug sensitivity score [7] | drug sensitivity score [8] | drug sensitivity score [9] | drug sensitivity score [10] | relative viability EC50 [11] [µM] | relative viability EC50 [12] [µM] | relative viability EC50 [13] [µM] | relative viability EC50 [14] [µM] | relative viability EC50 [15] [µM]
O=C(c1cc(S(=O)(=O)Nc2ccccc2F)c(F)cc1Cl)N1CCN2CCC[C@@H]2C1 [ABT-639] | 99.1 | 97.4 | 99 | 95.1 | 99.5 | 103 | 104 | 99.8 | 106 | 96.1 | 95.2 | 97.8 | 98.9 | 94.9 | 104 | 102 | 98.9 | 97.8 | 100 | 100 | 94.4 | 106 | 87.2 | 105 | 92.5 | 0 | 0 | 0 | 0 | 0 | > 10 | > 10 | > 10 | > 10 | > 10
Cc1ccc(S(=O)(=O)NC2c3ccccc3Oc3ccccc32)cc1 [AH-7614] | 105 | 95.8 | 102 | 102 | 100 | 101 | 108 | 96.5 | 96.5 | 113 | 96.5 | 87.3 | 91.7 | 92.9 | 93.4 | 95.8 | 100 | 99.1 | 98 | 103 | 96.4 | 91.5 | 103 | 110 | 93 | 0 | 0 | 0 | 0 | 0 | > 10 | > 10 | > 10 | > 10 | > 10
Nc1ccn([C@@H]2O[C@@](CO)(CCl)[C@@H](O)[C@H]2F)c(=O)n1 [ALS-8112] | 102 | 99.2 | 102 | 96.8 | 97.4 | 104 | 102 | 93.8 | 100 | 90.9 | 95.2 | 96.4 | 96.1 | 93.9 | 98.9 | 100 | 97.7 | 97 | 98.8 | 94.8 | 90.2 | 94.3 | 104 | 96.1 | 82.8 | 0 | 0 | 0 | 0 | 0.8 | > 10 | > 10 | > 10 | > 10 | > 10
CN1CCN(CCc2ccc(Cl)c(Cl)c2)CC1 [BD-1063] | 94.2 | 100 | 93.9 | 100 | 95.3 | 91.3 | 96.2 | 102 | 96.9 | 101 | 98.6 | 100 | 95 | 91.3 | 92.2 | 105 | 101 | 105 | 95.1 | 93.9 | 108 | 102 | 103 | 92.4 | 87.7 | 0 | 0 | 0 | 0 | 0.4 | > 10 | > 10 | > 10 | > 10 | > 10
CCC[C@@H]1CC(=O)N([C@@H](CC)C(N)=O)C1 [Brivaracetam] | 102 | 98 | 102 | 96.2 | 99.6 | 100 | 103 | 92.7 | 100 | 97.2 | 89.1 | 94.5 | 93.8 | 102 | 98.8 | 89.6 | 96.2 | 88.3 | 97.5 | 107 | 101 | 96.2 | 101 | 97.9 | 114 | 0 | 0 | 0 | 0 | 0 | > 10 | > 10 | > 10 | > 10 | > 10
O=C(O)c1ccc(/C=C2\SC(=S)N(c3cccc(C(F)(F)F)c3)C2=O)cc1 [CFTRinh-172] | 95.2 | 101 | 94.2 | 104 | 99.4 | 102 | 99.9 | 97.8 | 106 | 116 | 104 | 100 | 86.7 | 99.4 | 99.9 | 96.3 | 96.3 | 96.4 | 93.9 | 107 | 111 | 104 | 96.2 | 94.7 | 106 | 0 | 0 | 0 | 0 | 0 | > 10 | > 10 | > 10 | > 10 | > 10
O=C(O)C1=CCCN(CCOC(c2ccc(C(F)(F)F)cc2)c2ccc(C(F)(F)F)cc2)C1 [CI-966] | 101 | 107 | 106 | 98.7 | 98 | 97.6 | 101 | 102 | 98.5 | 96.4 | 101 | 101 | 105 | 100 | 90.4 | 98.2 | 99.4 | 101 | 97.8 | 99.4 | 98.7 | 99.3 | 104 | 95.5 | 109 | 0 | 0 | 0 | 0 | 0 | > 10 | > 10 | > 10 | > 10 | > 10
